# Laboratory results reported in US6576632B1, “Biaryl compounds useful as anticancer agents” (Pfizer Inc, priority 1999, dated 2003).
structure (smiles),measurement,value
"O=C(O)c1cccc(-c2cccc(CC(=O)N(Cc3ccccc3)[C@@H]3c4ccccc4CC[C@H]3Cc3ccccc3)c2)c1 (relative stereo) [Example 1, trans-3′-{[Benzyl-(2-benzyl-1,2,3,4-tetrahydro-naphthalen-1-yl)-carbamoyl]-methyl}-biphenyl-3-carboxylic acid]",melting point,171 to 172 °C
